Data on 3 compounds can be found in ChEMBL document CHEMBL5390277, “Development of N-Terminally Modified Variants of the CXCR4-Antagonistic Peptide EPI-X4 for Enhanced Plasma Stability” (J Med Chem, 2023).

Molecules are shown by their SMILES. Square brackets hold non-standard residues; d marks the D form. Peptide text beside a SMILES is read from it.

Data set [1] deals with T1, C-X-C chemokine receptor type 4 (Homo sapiens, UniProt P61073). The experiment in a line: Displacement of 12G5 antibody from CXCR4 in human SUP-T1 cells as fold increase in apparent IC50 in presence of human plasma media by flow cytometry based competitive analysis. It is filed as cell-based. As to conditions: filed as antagonist.
Data set [2] addresses T1, C-X-C chemokine receptor type 4. The data set is described as follows: Displacement of 12G5 antibody from CXCR4 in human SUP-T1 cells in presence of human plasma media incubated for 2 hrs by flow cytometry based competitive analysis. Type of data set: cell-based.
Data set [3] is described as follows: Stability in C57BL/6 mouse plasma assessed as compound remaining at 3.5 mg/kg,iv administration and measured after 30 mins in presence of fluorescent labeled CXCR4 antibody and CXCR4 expressing human SUP-T1 cells by antibody-competition based flow cytometry assay. It is filed as ADME, organism-based. As to conditions: in vivo, 0.5 h.
Data set [4] deals with T1, C-X-C chemokine receptor type 4. The experiment in a line: Displacement of 12G5 antibody from CXCR4 in human SUP-T1 cells in presence of human plasma media incubated for 8 hrs by flow cytometry based competitive analysis. It is filed as cell-based.
For data set [5] the target is unchanged. The experiment in a line: Displacement of 12G5 antibody from CXCR4 in human SUP-T1 cells assessed as stability of the compound by measuring remaining activity in presence of human plasma media at 20 uM by flow cytometry based competitive analysis relative to control. Type of data set: cell-based.
For data set [6] the target is unchanged. The experiment in a line: Displacement of 12G5 antibody from CXCR4 in human SUP-T1 cells as fold increase in apparent IC50 in presence of human plasma media incubated for 8 hrs by flow cytometry based competitive analysis. The note with it: filed as antagonist. It is filed as cell-based.
A further data set concerns SUP-T1. The data set is described as follows: Inhibition of cell migration in human SUP-T1 cells assessed as inhibition of CXCL12 mediated cell migration incubated for 4 hrs in presence of chemoattractant, CXCL12 by Transwell based CellTiter-Glo-chemotaxis assay. Type of data set: functional.
Data set [7] relates to Human immunodeficiency virus 1. The experiment in a line: Antiviral activity against HIV-1 NL4-3 infected in human TZM-bl cells assessed as inhibition of viral replication preincubated for 15 mins followed by viral infection and measured after 4320 mins by beta-gal screening assay. It is filed as functional, organism-based. As to conditions: Human immunodeficiency virus 1, NL4-3, TZM.

In data set [8] the target is T1, C-X-C chemokine receptor type 4. The data set is described as follows: Antagonist activity at CXCR4 (unknown origin) expressed in human HEK293T cells co-expressing SmBiT-beta-arrestin2 preincubated with compound for 10 mins followed by CXCL12 stimulation and measured for 120 mins by beta-arrestin2 recruitment based NanoBiT assay. It is filed as functional, cell-based.

The nature of data set [9]: Toxicity in Zebrafish embryo incubated for 24 hrs by microscopic analysis. The arrangement: species or system Danio rerio. As to conditions: in vivo.
Data set [10] has as its target T1, C-X-C chemokine receptor type 4. The data set is described as follows: Antagonist activity at CXCR4 in human SUP-T1 cells assessed as inhibition of CXCL12-induced ERK phosphorylation preincubated with 15 mins followed by CXCL12 stimulation and measured after 12 mins by flow cytometry analysis. It is filed as functional, cell-based.
For data set [11] the target is unchanged. The data set is described as follows: Displacement of 12G5 mAb from CXCR4 in human SUP-T1 cells incubated for 2 hrs by flow cytometry analysis. It is filed as cell-based.
Data set [12] in a line: Stability in human plasma assessed as half life measured upto 120 mins by mass spectrometry method. Type of data set: ADME, cell-free.

T1 sequence (P61073 whole entry): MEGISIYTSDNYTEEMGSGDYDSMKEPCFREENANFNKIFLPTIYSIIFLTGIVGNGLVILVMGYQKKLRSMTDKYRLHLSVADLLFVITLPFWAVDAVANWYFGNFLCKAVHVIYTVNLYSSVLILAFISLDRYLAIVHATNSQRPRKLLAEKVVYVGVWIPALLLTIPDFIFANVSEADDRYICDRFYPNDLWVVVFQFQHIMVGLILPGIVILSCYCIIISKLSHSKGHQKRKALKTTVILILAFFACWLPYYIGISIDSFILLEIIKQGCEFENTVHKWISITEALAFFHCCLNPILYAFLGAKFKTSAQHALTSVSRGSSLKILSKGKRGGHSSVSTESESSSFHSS

For `CC[C@H](C)[C@H](N)C(=O)N[C@@H](CC(C)C)C(=O)N[C@@H](CCCNC(=N)N)C(=O)N[C@@H](Cc1c[nH]c2ccccc12)C(=O)N[C@@H](CO)C(=O)N[C@@H](CCCNC(=N)N)C(=O)N[C@@H](CCCCN)C(=O)N[C@@H](CC(C)C)C(=O)N1CCC[C@H]1C(=O)N[C@@H](CS)C(=O)N[C@H](C(=O)N[C@@H](CO)C(=O)O)C(C)C`, the fold change (FC) in data set [1] stood at 1. Further, the figures for the IC50 in [2] and in [4] were 476 nM and 1590 nM, respectively. Moreover, the Stability result in data set [3] is “Unstable”. In [5], the Activity was 100%.

As for `CC[C@@H](C)[C@@H](N)C(=O)N[C@@H](CC(C)C)C(=O)N[C@@H](CCCNC(=N)N)C(=O)N[C@@H](Cc1c[nH]c2ccccc12)C(=O)N[C@@H](CO)C(=O)N[C@@H](CCCNC(=N)N)C(=O)N[C@@H](CCCCN)C(N)=O` (H-[dI]LRWSRK-NH2), the fold change (FC) in [1] is 1; in data set [6], 1.1. For the same compound, the Stability entry in data set [3] is reported as “Stable”. Further, the inhibition entry in the data set on SUP-T1 is “Dose-Dependent Effect”. Moreover, the IC50 in data set [7] stood at 1990 nM; in data set [8] it was 92 nM; in data set [10] it was 6750 nM; in [11] it was 263 nM. The Activity is 100% in data set [5] and “Non-Toxic” in data set [9].

In the case of `CC[C@H](C)[C@H](N)C(=O)N[C@H](C(=O)N[C@@H](CCCNC(=N)N)C(=O)N[C@@H](Cc1c[nH]c2ccccc12)C(=O)N[C@@H](CO)C(=O)N[C@@H](CCCCN)C(=O)N[C@@H](CCCCN)C(=O)N[C@H](C(=O)N1CCC[C@H]1C(=O)N[C@@H](CS)C(=O)N[C@H](C(=O)N[C@@H](CO)C(=O)O)C(C)C)C(C)C)C(C)C` (H-IVRWSKKVPCVS-OH), the IC50 in data set [7] was 562 nM; in data set [10], 8050 nM; in data set [11], 345 nM. For the same compound, the half-life in data set [12] is 5.2 min.
